# In patent US12203089B2, “Plants having increased tolerance to herbicides” (BASF SE, priority 2015, dated 2025):
# What was measured:
# Format in all cases: in vivo
# [1] = tested on: Brassica napus expressing BnaA03g52020D (SEQ ID 15) variant G1015R; test: Greenhouse herbicide tolerance, pre emergent; details: 7 days after treatment
# Procedure: (§1) T1/T2 transgenic plants of Brassica napus containing cellulose synthase sequences or mutated gene variants thereof are tested for improved tolerance to herbicides in greenhouse studies with azine herbicides. For the pre-emergence treatment, the herbicides are applied directly after sowing by means of finely distributing nozzles. The containers are irrigated gently to promote germination and growth and subsequently covered with transparent plastic hoods until the plants have rooted. This cover causes uniform germination of the test plants, unless this has been impaired by the herbicides. For post emergence treatment, the test plants are first grown to a height of 3 to 15 cm, depending on the plant habit, and only then treated with the herbicides. For this purpose, the test plants are either sown directly, and grown in the same containers or they are first grown separately and transplanted into the test containers a few days prior to treatment.
# (§2) Herbicide injury evaluations are taken at 1, 2 and 3 weeks after treatment. Plant biomass reduction is rated on a scale of 0% to 100%, 0% being no reduction of biomass compared to untreated control, and 100% being complete absence of biomass.
# [2] = tested on: Brassica napus expressing BnaAnng01240D (SEQ ID 20) variant S1038F; test: Greenhouse herbicide tolerance, pre emergent; details: 7 days after treatment
# Procedure: as §1, §2
# Brassica napus wildtype [3] = test: Greenhouse herbicide tolerance, pre emergent; details: 1.95 g/ha, 7 days after treatment
# Procedure: as §1, §2
# [4] = tested on: Brassica napus expressing BnaA03g55200D (SEQ ID 12) variant S1038F; test: 6-well plate injury test, T1 seeds on vermiculite; details: 7 days after treatment
# Procedure: (§3) Transgenic Brassica napus plants are assayed for improved tolerance to azine herbicides like e. g. 6-cyclopentyl-N4-(2,3,4,5,6-pentafluorophenyl)-1,3,5-triazine-2,4-diamine in 6-well plates. Therefore, 5-6 T1 seeds are sown on vermiculite and watered with half-strength murashige skoog nutrient solution, pH 5.8 (Murashige and Skoog (1962) Physiologia Plantarum 15: 473-497). Compounds are dissolved in dimethylsulfoxid (DMSO) and added to the medium (final DMSO concentration 0.1%). Multi well plates are incubated in a growth chamber at 22° C., 75% relative humidity and 110 μmol Phot*m^−2*s^−1 with 14: 10 h light: dark photoperiod. Growth inhibition is evaluated seven to ten days after seeding in comparison to wild type plants. Plant injury is rated on a scale of 0% to 100%, 0% being no injury and 100% being complete death.
# [5] = tested on: Brassica napus expressing BnaAnng01240D (SEQ ID 20) variant S1041L; test: 6-well plate injury test, T1 seeds on vermiculite; details: 7 days after treatment
# Procedure: as §3
# [6] = tested on: Brassica napus expressing BnaA03g55200D (SEQ ID 12) variant S1041L; test: 6-well plate injury test, T1 seeds on vermiculite; details: 7 days after treatment
# Procedure: as §3
# Brassica napus wildtype [7] = test: 6-well plate injury test, seeds on vermiculite
# Procedure: as §3
# [8] = tested on: Brassica napus expressing BnaAnng01240D (SEQ ID 20) variant S1041L; test: Greenhouse herbicide tolerance, post emergent; details: 7 days after treatment
# Procedure: as §1, §2
# [9] = tested on: Brassica napus expressing BnaA01g04600D (SEQ ID 21) variant G1012R; test: 6-well plate injury test, T1 seeds on vermiculite; details: BnaA01g04600D G1012R event 1, 7 days after treatment
# Procedure: as §3
# [10] = BnaAnng01240D S1041L event 1, 5*10^-8M
# [11] = BnaAnng01240D S1041L event 1, 10^-6M
# [12] = BnaAnng01240D S1041L event 1, 10^-7M
# [13] = BnaAnng01240D S1041L event 1, 10^-8M
smiles,measurement,setting,value
"Nc1nc(Nc2c(F)c(F)c(F)c(F)c2F)nc(C2CCCC2)n1 [6-cyclopentyl-N4-(2,3,4,5,6-pentafluorophenyl)-1,3,5-triazine-2,4-diamine]",average phytotox value,[1]; 1.95 g/ha,27%
same,average phytotox value,[1]; 3.9 g/ha,0%
same,average phytotox value,[1]; 7.8 g/ha,0%
same,average phytotox value,[1]; 15.6 g/ha,21%
same,average phytotox value,[2]; 1.95 g/ha,1%
same,average phytotox value,[2]; 3.9 g/ha,14%
same,average phytotox value,[2]; 7.8 g/ha,8%
same,average phytotox value,[2]; 15.6 g/ha,26%
same,average phytotox value,Brassica napus wildtype [3],18%
same,average phytotox value,"[4]; BnaA03g55200D S1038F event 1, 5*10^-8M",40%
same,average phytotox value,"[4]; BnaA03g55200D S1038F event 1, 10^-6M",80%
same,average phytotox value,"[4]; BnaA03g55200D S1038F event 1, 10^-7M",75%
same,average phytotox value,"[4]; BnaA03g55200D S1038F event 1, 10^-8M",15%
same,average phytotox value,"[4]; BnaA03g55200D S1038F event 1, 10^-9M",0%
same,average phytotox value,"[4]; BnaA03g55200D S1038F event 2, 5*10^-8M",65%
same,average phytotox value,"[4]; BnaA03g55200D S1038F event 2, 10^-6M",90%
same,average phytotox value,"[4]; BnaA03g55200D S1038F event 2, 10^-7M",75%
same,average phytotox value,"[4]; BnaA03g55200D S1038F event 2, 10^-8M",0%
same,average phytotox value,"[4]; BnaA03g55200D S1038F event 2, 10^-9M",0%
same,average phytotox value,"[4]; BnaA03g55200D S1038F event 3, 5*10^-8M",65%
same,average phytotox value,"[4]; BnaA03g55200D S1038F event 3, 10^-6M",90%
same,average phytotox value,"[4]; BnaA03g55200D S1038F event 3, 10^-7M",80%
same,average phytotox value,"[4]; BnaA03g55200D S1038F event 3, 10^-8M",0%
same,average phytotox value,"[4]; BnaA03g55200D S1038F event 3, 10^-9M",0%
same,average phytotox value,[5]; [10],55%
same,average phytotox value,[5]; [11],80%
same,average phytotox value,[5]; [12],70%
same,average phytotox value,[5]; [13],0%
same,average phytotox value,"[5]; BnaAnng01240D S1041L event 1, 10^-9M",0%
same,average phytotox value,"[5]; BnaAnng01240D S1041L event 2, 5*10^-8M",65%
same,average phytotox value,"[5]; BnaAnng01240D S1041L event 2, 10^-6M",80%
same,average phytotox value,"[5]; BnaAnng01240D S1041L event 2, 10^-7M",80%
same,average phytotox value,"[5]; BnaAnng01240D S1041L event 2, 10^-8M",0%
same,average phytotox value,"[5]; BnaAnng01240D S1041L event 2, 10^-9M",0%
same,average phytotox value,"[6]; BnaA03g55200D S1041L event 1, 5*10^-8M",35%
same,average phytotox value,"[6]; BnaA03g55200D S1041L event 1, 10^-6M",95%
same,average phytotox value,"[6]; BnaA03g55200D S1041L event 1, 10^-7M",75%
same,average phytotox value,"[6]; BnaA03g55200D S1041L event 1, 10^-8M",0%
same,average phytotox value,"[6]; BnaA03g55200D S1041L event 1, 10^-9M",0%
same,average phytotox value,"[6]; BnaA03g55200D S1041L event 2, 5*10^-8M",50%
same,average phytotox value,"[6]; BnaA03g55200D S1041L event 2, 10^-6M",90%
same,average phytotox value,"[6]; BnaA03g55200D S1041L event 2, 10^-7M",80%
same,average phytotox value,"[6]; BnaA03g55200D S1041L event 2, 10^-8M",10%
same,average phytotox value,"[6]; BnaA03g55200D S1041L event 2, 10^-9M",0%
same,average phytotox value,"[6]; BnaA03g55200D S1041L event 3, 5*10^-8M",60%
same,average phytotox value,"[6]; BnaA03g55200D S1041L event 3, 10^-6M",85%
same,average phytotox value,"[6]; BnaA03g55200D S1041L event 3, 10^-7M",70%
same,average phytotox value,"[6]; BnaA03g55200D S1041L event 3, 10^-8M",0%
same,average phytotox value,"[6]; BnaA03g55200D S1041L event 3, 10^-9M",0%
same,average phytotox value,"[6]; BnaA03g55200D S1041L event 4, 5*10^-8M",50%
same,average phytotox value,"[6]; BnaA03g55200D S1041L event 4, 10^-6M",85%
same,average phytotox value,"[6]; BnaA03g55200D S1041L event 4, 10^-7M",60%
same,average phytotox value,"[6]; BnaA03g55200D S1041L event 4, 10^-8M",10%
same,average phytotox value,"[6]; BnaA03g55200D S1041L event 4, 10^-9M",0%
"Nc1nc(Nc2nc(F)c(F)c(Cl)c2F)nc(C2(F)CCCC2)n1 [N2-(4-chloro-3,5,6-trifluoro-2-pyridyl)-6-(1-fluorocyclopentyl)-1,3,5-triazine-2,4-diamine]",average phytotox value,"Brassica napus wildtype [7]; 5*10-7, 7 days after treatment",78%
same,average phytotox value,"Brassica napus wildtype [7]; 5*10^-8M, 7 days after treatment",18%
same,average phytotox value,"Brassica napus wildtype [7]; 10^-6M, 7 days after treatment",85%
same,average phytotox value,"Brassica napus wildtype [7]; 10^-7M, 7 days after treatment",56%
same,average phytotox value,"Brassica napus wildtype [7]; 10^-8M, 7 days after treatment",8%
same,average phytotox value,[8]; 7.8 g/ha,6%
same,average phytotox value,[8]; 15.6 g/ha,9%
same,average phytotox value,[8]; 31.25 g/ha,54%
same,average phytotox value,[8]; 62.5 g/ha,64%
same,average phytotox value,[9]; 5*10-7,75%
same,average phytotox value,[9]; 5*10^-8M,10%
same,average phytotox value,[9]; 10^-6M,80%
same,average phytotox value,[9]; 10^-7M,10%
same,average phytotox value,[9]; 10^-8M,0%
same,average phytotox value,"[5]; BnaAnng01240D S1041L event 1, 5*10-7",90%
same,average phytotox value,[5]; [10],0%
same,average phytotox value,[5]; [11],90%
same,average phytotox value,[5]; [12],10%
same,average phytotox value,[5]; [13],0%
